In ChEMBL document CHEMBL5518238, “Structure-Activity Relationship (SAR) Studies of Novel Monovalent AR/AR-V7 Dual Degraders with Potent Efficacy against Advanced Prostate Cancer” (J Med Chem, 2024):
pIC50: −log10 of the molar value. Activity calls are given as the source filed them. The calls are words filed in the database; no cut-off is given here.

What was measured:
CWR22R [1] = assay: Induction of cell cycle arrest in human 22Rv1 cells assessed as accumulation of cells at G0/G1 phase at 1 uM incubated for 24 hrs by DAPI staining based flow cytometric analysis (reference value: 26.3 %); format: functional
CWR22R [2] = assay: Antitumor activity against human 22Rv1 cells xenografted in NSG mouse assessed as decrease in AR-V7 level in tumor at 10 mg/kg, IG administered once daily for 3 days by […] based analysis; format: functional, organism-based; conditions: time 3.0 day
CWR22R [3] = assay: Downregulation of FKBP5 mRNA expression in human 22Rv1 cells at 10 uM incubated for 24 hrs by qRT-PCR analysis; format: functional, cell-based
[4] = AUC (0 to t) in Sprague-Dawley rat at 50 mg/kg, po by LC-MS/MS analysis; format: ADME, organism-based; conditions: in vivo
CWR22R [5] = assay: Downregulation of MMP16 mRNA expression in human 22Rv1 cells at 10 uM incubated for 24 hrs by qRT-PCR analysis; format: functional, cell-based
CWR22R [6] = assay: Induction of apoptosis in human 22Rv1 cells assessed as effect on Bcl-xL level incubated for 24 hrs by Western blot analysis; format: functional, cell-based; conditions: dose <= 10.0 µM
LNCaP = assay: Antiproliferative activity against human LNCaP cells assessed as inhibition of cell growth incubated for 48 hrs by CCK-8 assay; format: functional, cell-based
[7] = Antiproliferative activity against human L02 cells assessed as inhibition of cell growth incubated for 48 hrs by CCK-8 assay; format: toxicity, cell-based
[8] = Oral bioavailability in Sprague-Dawley rat at 50 mg/kg by LC-MS/MS analysis; format: ADME, organism-based; conditions: in vivo
[9] = target: T1, Androgen receptor (Homo sapiens) (UniProt P10275); assay: Induction of AR degradation in human 22Rv1 cells at 20 uM incubated for 24 hrs in presence of Bortezomib by Western blot analysis; format: cell-based
T1 sequence (whole entry): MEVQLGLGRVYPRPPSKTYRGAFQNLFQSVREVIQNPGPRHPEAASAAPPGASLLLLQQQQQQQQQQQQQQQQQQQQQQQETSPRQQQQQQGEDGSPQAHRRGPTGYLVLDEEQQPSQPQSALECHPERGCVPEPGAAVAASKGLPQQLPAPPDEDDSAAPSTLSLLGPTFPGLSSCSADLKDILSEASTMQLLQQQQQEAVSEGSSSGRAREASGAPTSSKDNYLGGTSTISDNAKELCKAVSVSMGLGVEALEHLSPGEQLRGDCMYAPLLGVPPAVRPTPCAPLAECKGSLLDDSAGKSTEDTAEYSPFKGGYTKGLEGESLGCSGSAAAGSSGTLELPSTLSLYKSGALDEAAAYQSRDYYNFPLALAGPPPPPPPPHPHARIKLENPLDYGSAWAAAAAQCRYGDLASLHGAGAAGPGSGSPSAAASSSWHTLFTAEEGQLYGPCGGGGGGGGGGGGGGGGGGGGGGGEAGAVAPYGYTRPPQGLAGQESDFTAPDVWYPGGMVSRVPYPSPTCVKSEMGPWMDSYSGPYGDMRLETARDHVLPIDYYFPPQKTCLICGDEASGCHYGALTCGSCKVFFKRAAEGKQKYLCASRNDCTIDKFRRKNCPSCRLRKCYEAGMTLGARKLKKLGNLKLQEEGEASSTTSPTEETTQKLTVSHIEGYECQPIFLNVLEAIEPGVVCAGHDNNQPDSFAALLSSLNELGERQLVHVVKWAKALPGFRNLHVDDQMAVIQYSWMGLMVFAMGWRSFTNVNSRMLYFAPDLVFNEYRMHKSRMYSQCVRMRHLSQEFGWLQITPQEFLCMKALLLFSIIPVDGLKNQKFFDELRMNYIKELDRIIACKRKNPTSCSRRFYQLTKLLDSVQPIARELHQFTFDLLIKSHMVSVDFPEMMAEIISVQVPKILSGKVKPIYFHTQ

CWR22R [10] = assay: Induction of apoptosis in human 22Rv1 cells at 1 uM incubated for 24 hrs by Annexin V-FITC/PI staining based flow cytometric analysis (reference value: 3.70 %); format: functional
CWR22R [11] = assay: Downregulation of AR-V7 mRNA expression in human 22Rv1 cells at 5 to 10 uM incubated for 12 hrs by qRT-PCR analysis; format: functional, cell-based; conditions: dose 5-10 µM
CWR22R [12] = assay: Antitumor activity against human 22Rv1 cells xenografted in NSG mouse assessed as tumor growth inhibition at 30 mg/kg, IG administered once daily for 21 days; format: functional; conditions: 22Rv1, po, 504 h, time 21 day, read-out: TGI
CWR22R [13] = assay: Downregulation of KLK3 mRNA expression in human 22Rv1 cells incubated for 24 hrs by qRT-PCR analysis; format: functional, cell-based; conditions: dose 5-10 µM
[14] = AUC (0 to infinity) in Sprague-Dawley rat at 5 mg/kg, iv by LC-MS/MS analysis; format: ADME, organism-based; conditions: in vivo
[15] = target: T1, Androgen receptor (Homo sapiens); assay: Binding affinity to AR-NTD in human 22Rv1 cels by SPR analysis
CWR22R [16] = assay: Effect on ER level in human 22Rv1 at 2.5 to 20 uM incubated for 24 hrs by Western blot analysis; format: functional, cell-based; conditions: dose 2.5-20 µM
[17] = Half life in Sprague-Dawley rat at 5 mg/kg, iv by LC-MS/MS analysis; format: ADME, organism-based; conditions: in vivo
CWR22R [18] = assay: Downregulation of AR-V7 expression in human 22Rv1 cells at 5 uM incubated for 24 hrs by Western blot analysis; format: functional, cell-based
CWR22R [19] = assay: Inhibition of colony formation in human 22Rv1 cells incubated for 2 weeks by crystal violet staining based analysis; format: functional, cell-based; conditions: dose 0.1-5 µM
CWR22R [20] = assay: Induction of apoptosis in human 22Rv1 cells assessed as effect on Caspase-3 level incubated for 24 hrs by Western blot analysis; format: functional, cell-based; conditions: dose <= 10.0 µM
CWR22R [21] = assay: Downregulation of P3H3 mRNA expression in human 22Rv1 cells at 10 uM incubated for 24 hrs by qRT-PCR analysis; format: functional, cell-based
[22] = Toxicity in NSG mouse xenografted with human 22Rv1 cells assessed as effect on body weight at 30 mg/kg, IG administered once daily for 21 days; format: organism-based, CWR22R; conditions: in vivo, po, 504 h, time 21 day
[23] = MRT (0 to t) in Sprague-Dawley rat at 5 mg/kg, iv by LC-MS/MS analysis; format: ADME, organism-based; conditions: in vivo
CWR22R [24] = assay: Downregulation of DHCR24 mRNA expression in human 22Rv1 cells at 10 uM incubated for 24 hrs by qRT-PCR analysis; format: functional, cell-based
CWR22R [25] = assay: Induction of apoptosis in human 22Rv1 cells assessed as effect on Bcl-2 level incubated for 24 hrs by Western blot analysis; format: functional, cell-based; conditions: dose <= 10.0 µM
[26] = Stability in mouse plasma assessed as half life measured after 60 mins; format: ADME, cell-free
CWR22R [27] = assay: Downregulation of ABHD2 mRNA expression in human 22Rv1 cells at 10 uM incubated for 24 hrs by qRT-PCR analysis; format: functional, cell-based
DU-145 = assay: Antiproliferative activity against AR-negative human DU-145 cells assessed as inhibition of cell growth incubated for 48 hrs by CCK-8 assay; format: functional, cell-based; conditions: DU-145, 48 h
CWR22R [28] = assay: Downregulation of AR expression in human 22Rv1 cells at 5 uM incubated for 24 hrs by Western blot analysis; format: functional, cell-based
CWR22R [29] = assay: cells; format: functional, cell-based; conditions: Homo sapiens, 22Rv1, 48 h
Description: Antiproliferative activity against AR/AR-V7 positive human 22Rv1 cells assessed as inhibition of cell growth incubated for 48 hrs by CCK-8 assay

In the case of CC1(C)C(=O)N(c2ccc(C#N)c(C(F)(F)F)c2)C(=O)N1CCNc1ccc(F)c2ncccc12, the Activity (CWR22R [1]) was 41.5%, the Activity (CWR22R [2]) was “Active” and the Activity (CWR22R [3]) was “Active”. The AUC(0-t) [4] was 3060 ng·h/mL, the Activity (CWR22R [5]) was “Active” and the Activity (CWR22R [6]) was “Dose-Dependent Effect”. For the same compound, the pIC50 (LNCaP) was 5.85, the IC50 at 48 h [7] was > 100 µM and the bioavailability [8] was 11.9%. For the same compound, the Activity [9] was “Active”, the Activity (CWR22R [10]) was 11.94% and the Activity (CWR22R [11]) was “Active”. For the same compound, the inhibition in vivo at 30 mg/kg (CWR22R [12]) was 63%, the Activity (CWR22R [13]) was “Dose-Dependent Effect” and the AUC(0-inf) [14] was 2920 ng·h/mL. For the same compound, the Activity [15] was “Active”, the Activity (CWR22R [16]) was “Active” and the half-life [17] was 1.4 h. The Activity (CWR22R [18]) was “Active”, the inhibition (CWR22R [19]) was “Dose-Dependent Effect” and the Activity (CWR22R [20]) was “Dose-Dependent Effect”. The Activity (CWR22R [21]) was “Active”, the Activity [22] was “Non-Toxic” and the MRT last [23] was 1.3 h. For the same compound, the Activity (CWR22R [24]) was “Active”, the Activity (CWR22R [25]) was “Dose-Dependent Effect” and the half-life [26] was 4.78 h. The Activity (CWR22R [27]) was “Active”, the pIC50 (DU-145) was < 4.30 and the Activity (CWR22R [28]) was “Active”. For the same compound, the pIC50 (CWR22R [29]) was 6.05.
